Assay results taken from patent publication US7659308B2, “Concentricolide and its derivatives, process for preparing them, pharmaceutical composition comprising the same and its use” (Kunming Institute of Botany, The Chinese Academy of Sciences, priority 2003, dated 2010).
Values after ≈ are worked out from the molar mass of the structure shown.

Assays:
Format in all cases: cell-based
C8166 cells = assay: Cytotoxicity on C8166 cells (MTT colorimetric assay); settings: 72 h
Protocol: (§1) C8166 was one of the host cells for HIV-1. 100 μl of 4×10^5/ml cells were seeded on microtiter plate, 100 μl of various concentrations of concentricolide were added and incubated at 37° C. in a humidified atmosphere of 5% CO2 for 72 h. The cellular toxicity was assessed by MTT calorimetric assay. The plates were read on Bio-Tek ELx 800 ELISA reader at 595/630 nm (OD595/630 nm). 50% cytotoxic concentration (CC50) was calculated as follows: Cell viability %=(ODexp−ODblank)/(ODcontrol−ODblank)×100.

HIV-1IIIB = assay: Cytopathic effect (CPE) inhibition assay on HIV-1 infected C8166 cells
Protocol: To 100 μl of a culture medium containing corresponding concentration of concentricolide A from example 1 were added C8166 cells (4×10^5/ml) and HIV-1IIIB at a multiplicity of infection (M.O.I) of 0.06. The final volume was 200 μl. AZT was used as positive drug control. The plates were incubated in a humidified incubator at 37° C. and 5% CO2. After 3 days of culture, the cytopathic effect was measured by counting the number of syncytia in each well under an inverted microscope. EC50 (50% Effective Concentration) was the compound concentration inhibiting 50% of syncytia formation. The cytopathic effect (CPE) inhibition %=(1-number of syncytiaexp/number of syncytiacontrol)×100.

[1] = system: binding and fusion between HIV-1 and cells; assay: microbe, parasite or virus in culture; settings: C8166 + HIV-1 chronically infected H9 cells, 24 h, syncytia formation
From the text: When HIV infected cells were co-cultured with normal T lymphocyte cells, the exterior envelope glycoprotein gp120 expressed on infected cells was bound to the cellular CD4 receptor of the uninfected CD4^+ cells, following fusion of cells and formation of syncytia. Compounds target to this site would inhibit the syncytia formation. Thus, this method could be used to detect whether the compounds have effect on binding and fusion between virus and host cell. Concentricolide A in example 1 was diluted by five fold on 96-well microtiter plate, 3 repeated wells in each gradient, 100 μl per well. Negative control well free of compounds and T-20 positive control well were set up. Then, 50 μl of C8166 cells at logarithmic growth period (6×10^5/ml) and 50 μl of HIV-1 chronically infected H9 cells (2×10^5/ml) were added in each well. The plate was cultured in a humidified incubator at 37° C. and 5% CO2 for 24 h, and the syncytial formation was observed under microscope to deduce whether Concentricolide A blocks the fusion process of virus and cell .

[2] = Cytotoxicity on C8166 cells (MTT colorimetric assay); settings: human, read-out: CC50 (50% cytotoxic concentration)
Protocol: as §1

## Cc1cn([C@H]2C[C@H](N=[N+]=[N-])[C@@H](CO)O2)c(=O)[nH]c1=O [AZT, 3P-azido-3P-deoxythymidine, reference compound]
C8166 cells
  CC50 (50% cytotoxic concentration): 258.88 µg/mL (≈ 969 µM)
HIV-1IIIB; C8166 cells, HIV-1IIIB M.O.I. 0.06, 3 days, syncytia count
  EC50, inhibition of cytopathic effect (CPE) of HIV-1: 0.092 µg/mL

## enfuvirtide
[1]; positive control
  EC50, blockage of fusion of HIV-1 infected cells: 0.00602 µg/mL

## CC[C@@H]1OC(=O)c2c1ccc1ccoc21 [concentricolide A]
[2]
  CC50 at 72 h: 76.7 µg/mL (≈ 379 µM)
[1]; Human immunodeficiency virus 1, read-out: EC50, blockage of binding and fusion between HIV-1 and cells
  EC50: 0.83 µg/mL
HIV-1IIIB; Human immunodeficiency virus 1, 72 h, C8166 cells, HIV-1IIIB M.O.I. 0.06, 3 days, syncytia count
  EC50: 0.31 µg/mL (≈ 1.53 µM)
HIV-1IIIB; against HIV-1 in vitro
  selected index (S.I.): 222
